Results on ten compounds are retold here after US11078197B2, “5-membered and bicyclic heterocyclic amides as inhibitors of rock” (BRISTOL-MYERS SQUIBB COMPANY, priority 2017, dated 2021).

Assay [1] relates to porcine model of IL-1 beta-induced coronary stenosis. The following applies: long term treatment; cited from earlier work.
The next assay deals with rat stroke model. Conditions: cited from earlier work.
Assay [2] deals with spontaneously hypertensive rat, renal hypertensive rat and deoxycortisone acetate salt hypertensive rat models. Conditions: cited from earlier work.
The test system of assay [3] is neointimal formation in rats. Conditions: cited from earlier work.
In the next assay the test system is Dahl salt-sensitive rats. Conditions: congestive heart failure; cited from earlier work.
The target of another assay is ROCK2 (Homo sapiens (Human), UniProt O75116). Description: ROCK2 assay (peptide phosphorylation, LABCHIP 3000 Reader). In kind it is biochemical. Conditions: 5 μM ATP, 1.5 μM peptide substrate, dose-response. How it is done:
After incubation, the reaction was terminated by the addition of EDTA and the phosphorylated and non-phosphorylated peptides separated using a LABCHIP®3000 Reader (Caliper Life Sciences). […] Compounds were tested in dose-response format, and the inhibition of kinase activity was calculated at each concentration of compound. […] Representative Examples were tested in the ROCK2 assay described above and found having ROCK2 inhibitory activity.

pIC50: −log10 of the molar value. Read-outs that look alike come from different tables or passages of the source.

Sequence of ROCK2 (O75116 whole entry, species assumed): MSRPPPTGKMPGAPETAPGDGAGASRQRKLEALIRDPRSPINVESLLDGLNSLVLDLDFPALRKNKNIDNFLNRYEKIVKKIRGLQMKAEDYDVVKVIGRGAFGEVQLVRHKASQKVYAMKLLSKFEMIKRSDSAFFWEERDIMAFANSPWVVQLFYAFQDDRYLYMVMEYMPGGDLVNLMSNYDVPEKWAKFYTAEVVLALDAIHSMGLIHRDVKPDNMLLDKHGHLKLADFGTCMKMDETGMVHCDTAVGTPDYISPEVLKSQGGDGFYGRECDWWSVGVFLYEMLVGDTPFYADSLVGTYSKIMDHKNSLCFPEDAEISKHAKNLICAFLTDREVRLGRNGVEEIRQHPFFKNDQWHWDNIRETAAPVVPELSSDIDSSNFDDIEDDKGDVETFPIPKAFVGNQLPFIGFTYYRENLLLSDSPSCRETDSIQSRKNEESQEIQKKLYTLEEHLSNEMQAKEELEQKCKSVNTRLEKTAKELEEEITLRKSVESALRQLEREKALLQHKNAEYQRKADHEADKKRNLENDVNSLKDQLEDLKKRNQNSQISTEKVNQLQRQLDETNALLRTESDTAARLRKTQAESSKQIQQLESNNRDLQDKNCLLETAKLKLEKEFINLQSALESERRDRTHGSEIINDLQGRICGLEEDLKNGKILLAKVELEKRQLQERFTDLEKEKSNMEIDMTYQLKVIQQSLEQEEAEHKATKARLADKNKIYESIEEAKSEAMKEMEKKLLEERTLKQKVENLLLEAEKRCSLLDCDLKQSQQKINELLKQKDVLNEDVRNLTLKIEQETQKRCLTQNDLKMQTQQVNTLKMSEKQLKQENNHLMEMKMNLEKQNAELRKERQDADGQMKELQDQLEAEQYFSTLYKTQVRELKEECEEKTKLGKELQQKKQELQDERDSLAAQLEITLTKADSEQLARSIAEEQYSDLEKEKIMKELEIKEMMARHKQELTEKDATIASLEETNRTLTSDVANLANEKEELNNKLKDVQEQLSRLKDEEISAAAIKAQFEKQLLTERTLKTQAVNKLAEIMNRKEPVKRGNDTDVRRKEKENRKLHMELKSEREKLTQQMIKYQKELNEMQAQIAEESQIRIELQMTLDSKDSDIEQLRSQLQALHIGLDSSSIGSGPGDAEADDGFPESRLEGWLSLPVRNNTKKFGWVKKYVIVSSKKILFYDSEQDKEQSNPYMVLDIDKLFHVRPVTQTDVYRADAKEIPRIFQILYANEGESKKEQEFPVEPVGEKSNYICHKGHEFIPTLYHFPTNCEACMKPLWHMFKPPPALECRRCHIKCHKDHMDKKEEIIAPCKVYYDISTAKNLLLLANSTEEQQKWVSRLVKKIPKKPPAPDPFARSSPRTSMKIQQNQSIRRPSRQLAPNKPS

`O=S(=O)(c1cccc2cnccc12)N1CCCNCC1` [fasudil]: in assay [1], the coronary constrictive remodeling entry is “promote a regression of coronary constrictive remodeling” and the coronary stenosis entry is listed as “progressively reduce coronary stenosis”. For the same compound, the “infarct size and neurologic deficit” value in the assay with rat stroke model was “reduce both the infarct size and neurologic deficit”.

For `C[C@@H](N)[C@H]1CC[C@H](C(=O)Nc2ccncc2)CC1` [Example Y-27632, Y-27632], the blood pressure entry in assay [2] (control rats) is given as “only a minor effect on blood pressure”; in assay [2] (three rat models of hypertension), “significantly decrease blood pressure”. The neointimal formation result in assay [3] was “inhibited neointimal formation”. Besides, the “ventricular hypertrophy, fibrosis and function” value with Dahl salt-sensitive rats is “improve ventricular hypertrophy, fibrosis and function”.

As to `CC(C)(O)COc1ccc2c(C(=O)N[C@H]3C[C@]4(C3)C[C@H](Oc3nn5cc(C(F)(F)F)ccc5c3C(N)=O)C4)nn(C(F)F)c2c1` (stereo partly drawn) [Example 130, 1-(difluoromethyl)-6-(2-hydroxy-2-methylpropoxy)-N-[(4s)-6-{[3-carbamoyl-6-(trifluoromethyl)pyrazolo[1,5-a]pyridin-2-yl]oxy}spiro[3.3]heptan-2-yl]-1H-indazole-3-carboxamide], the pIC50 against ROCK2 was 6.21.

Turning to `Cc1c(C(=O)N[C@H]2C[C@]3(C2)C[C@H](Oc2nn(C4CC4)cc2C(N)=O)C3)cnn1-c1ccc(Cl)cc1` (stereo partly drawn) [Example 51, 1-cyclopropyl-3-{[(aR)-6-[1-(4-chlorophenyl)-5-methyl-1H-pyrazole-4-amido]spiro[3.3]heptan-2-yl]oxy}-1H-pyrazole-4-carboxamide], the pIC50 at ROCK2 is 7.35.

Regarding `CC(C)(O)COc1ccc2c(C(=O)N[C@H]3C[C@]4(C3)C[C@H](Oc3nc5ccccc5cc3C(N)=O)C4)cnn2c1C1CC1` (stereo partly drawn) [Example 71, 2-(((aR)6-(7-cyclopropyl-6-(2-hydroxy-2-methylpropoxy)pyrazolo [1,5-a]pyridine-3-carboxamido)spiro [3.3]heptan-2-yl)oxy)quinoline-3-carboxamide], the pIC50 at ROCK2 was 8.06.

The compound `Cc1c(C(=O)N[C@H]2C[C@]3(C2)C[C@H](Oc2nc(C4CC4)sc2C(N)=O)C3)cnn1-c1ccccc1` (stereo partly drawn) [Example 68, 2-cyclopropyl-4-{[(aR)-6-(5-methyl-1-phenyl-1H-pyrazole-4-amido)spiro[3.3]heptan-2-yl]oxy}-1,3-thiazole-5-carboxamide] had a pIC50 against ROCK2 of 6.97.

Consider `CC(C)CC1NC(=O)N([C@H]2C[C@@]3(C[C@H](Oc4nc(C5CC5)sc4C(N)=O)C3)C2)C1=O` (single isomer, unassigned) [Example 111], for which the pIC50 at ROCK2 was 6.98. The pIC50 values of the last two compounds are within 0.2 log units of each other.

As for `Cc1c(C(=O)N[C@H]2C[C@]3(C2)C[C@H](Oc2nc4c(cnn4C)cc2C(N)=O)C3)cnn1-c1ccc(C#N)cc1` (stereo partly drawn) [Example 152, 1-(4-cyanophenyl)-5-methyl-N-[(4s)-6-({5-carbamoyl-1-methyl-1H-pyrazolo[3,4-b]pyridin-6-yl}oxy)spiro[3.3]heptan-2-yl]-1H-pyrazole-4-carboxamide], the pIC50 against ROCK2 is 8.20. Against the preceding compound, the pIC50 is 1.22 log units higher.

On ROCK2, `COc1nc(O[C@H]2C[C@@]3(C[C@H](NC(=O)c4cnn(-c5ccc(C(F)(F)F)cn5)c4C)C3)C2)c(C(N)=O)s1` (stereo partly drawn) [Example 114, 2-methoxy-4-{[(4s)-6-{5-methyl-1-[5-(trifluoromethyl)pyridin-2-yl]-1H-pyrazole-4-amido}spiro[3.3]heptan-2-yl]oxy}-1,3-thiazole-5-carboxamide] gave a pIC50 of 6.94.

As to `COc1nc(O[C@H]2C[C@@]3(C[C@H](NC(=O)c4cnn(-c5ccc(Cl)cc5)c4C)C3)C2)c(C(N)=O)s1` (stereo partly drawn) [Example 113, 2-methoxy-4-{[(4s)-6-[1-(4-chlorophenyl)-5-methyl-1H-pyrazole-4-amido]spiro[3.3]heptan-2-yl]oxy}-1,3-thiazole-5-carboxamide], at ROCK2, the pIC50 was 7.27.

Usually pIC50 stands for the IC50 on a negative log10 scale, so that one unit is a factor of ten.
